# Source: patent US11198869B2, “Angelman syndrome antisense treatment” (The Texas A&M University System, priority 2017, dated 2021)
# Like-named read-outs stand apart in the source and are kept apart here.
# Legend:
# UBE3A-AS = UBE3A-AS steady state RNA (TaqMan qRT-PCR) in GABAergic iPSC-derived neurons; type: cell-based, human; details: for decrease of UBE3A-AS RNA levels: 10 μM; for Difference, UBE3A-AS RNA level / UBE3A-AS RNA levels relative to the control treatment (in words): ASOs 10 μM; for low concentration that significantly reduced UBE3A-AS RNA levels: human iPSC-derived neurons; for Relative Potency: relative to ASO 4.S = 1
# Description: Human-specific ASOs were then designed to target this region, which included four ASOs targeting non-polymorphic regions in human and regions conserved (100%) with macaque (Rhesus and Cynomolgus) (Table 7 and FIG. 3A). Human induced pluripotent stem cell (iPSC) neural precursor cells were differentiated into GABAergic neurons for 14 DIV and then treated with a control ASO [ASO-C (10 μM, n=3)], Topotecan [Topo (1 μM, n=2)], and six ASOs targeting UBE3A-AS [ASO-1, ASO-2, ASO-3, ASO-4, ASO-5, and ASO-6 (10 μM, n=3)]. Additionally, an ASO targeting an intronic region downstream of SNORD109B was included (ASO-7). Six days post-treatment (20 DIV), RNA was isolated from the neurons and the steady state RNA levels of UBE3A-AS and UBE3A were estimated relative to the control treatment (FIG. 3B).
# The potency of ASO-4 was further examined given its effect on UBE3A-AS RNA levels. GABAergic iPSC-derived neurons were treated at 14 DIV with a 10-point ½ log dose response curve of ASO-4 and Topotecan, as a positive control and for comparisons between treatment [1 nM, 3 nM, 10 nM, 30 nM, 100 nM, 300 nM, 1 μM, 3 μM, 10 μM, and 30 μM (ASO-4, n=6; Topotecan, n=2)]. At 20 DIV, the steady state RNA levels of UBE3A-AS were measured and dose response curves fitted to estimate the IC50 and Emax (i.e., maximum UBE3A-AS inhibition) (Table 9 and FIG. 4A). […]
# Additional ASOs targeting the 5′-end of UBE3A-AS were then designed to optimize the target sequences of ASO-4 (ASO-4.1, ASO-4.2, ASO-4.3, and ASO-4.4) as well as two other target regions, ASO-3 (ASO-3.1 and ASO-3.2) and ASO-6 (ASO-6.1) (Table 11). Additionally, ASO-4 was manufactured at two different vendors for comparative purposes (ASO-4.S, Sigma; ASO-4.I, Integrated DNA Technologies). Human iPSC-derived neurons (GABAergic) were treated at 14 DIV with a […] ½ log dose curve of ASO-3.1, ASO-3.2, ASO-4.S, ASO-4.I, ASO-4.1, ASO-4.2, ASO-4.3, ASO-4.4, and ASO-6.1 [30 nM, 100 nM, 300 nM, 1 μM (n=6)]. At 20 DIV, the IC50 and Emax of each ASO was estimated as described above (FIG. 5A-B and Table 12). […] No significant difference was observed between ASO-4.S and ASO-4.I.
# The potency of ASO-4 and ASO-6.1 was further examined in iPSC-derived neurons at a later time point in differentiation. GABAergic iPSC-derived neurons were treated at 29 DIV with a 10-point ½ log dose response curve of ASO-4 and ASO-6.1 [1 nM, 3 nM, 10 nM, 30 nM, 100 nM, 300 nM, 1 μM, 3 μM, 10 μM, and 30 μM (n=3)]. At 35 DIV, the IC50 and Emax of each ASO was estimated as described above (FIG. 5C-D and Table 14). The dose response curves of ASO-4 and ASO-6.1 were not similar (Parallelism test: F(3,172)=22.7, p<0.0001).
# GABAergic and glutamatergic induced pluripotent stem cell (iPSC) derived neural precursor cells (NRC-100-010-001 and GNC-301-030-001, Cellular Dynamics International, Madison Wis.) were differentiated into neurons according to the manufactures protocol. Briefly, neural precursor cells were thawed and resuspended in chemically defined medium and added to sterile-culture plates coated with poly-D-lysine and laminin. The medium was replaced 24 hr after plating and then one-half of the medium was replaced every 3-5 days afterwards.
# For cultured iPSC-derived neurons, RNA isolation and cDNA synthesis were performed using the Cell-to-CT kit (Thermo Fisher Scientific) in a lysate volume of 55 μl.
# The steady state RNA levels of target transcripts were measured using TaqMan quantitative reverse-transcription PCR (qRT-PCR) assays. Total reaction volume was 10 uL, including 2 μl of cDNA, 1× Gene Expression Master mix (4369016, Thermo Fisher Scientific, Waltham, Mass.), and 1× TaqMan primer assay (Thermo Fisher Scientific). Cycling conditions were 2 minutes at 50° C., 10 minutes at 95° C., and 40 cycles of 15 seconds at 95° C. and 1 minute at 60° C., with readings taken at the 60° C. step of every cycle. […]
# IPW = IPW steady state RNA (qRT-PCR) in GABAergic iPSC-derived neurons; details: 10-point dose curve 1 nM-30 μM; 14 DIV to 20 DIV
# SNORD115 = SNORD115 steady state RNA (qRT-PCR) in GABAergic iPSC-derived neurons; details: 10-point dose curve 1 nM-30 μM; 14 DIV to 20 DIV
# [1] = Topo 1 μM, 14 DIV to 20 DIV, ASO-1 minus labelled treatment
# [2] = Topo 1 μM, 14 DIV to 20 DIV, ASO-R minus labelled treatment
# [3] = Topo 1 μM, 14 DIV to 20 DIV, Topo minus labelled treatment
# [4] = Topo 1 μM, treated 14 DIV, RNA 20 DIV, normalized to ASO-C, ASO-C minus labelled treatment
# [5] = 14 DIV to 20 DIV, ASO-3 minus labelled treatment
# [6] = 14 DIV to 20 DIV, ASO-5 minus labelled treatment
# [7] = 14 DIV to 20 DIV, ASO-6 minus labelled treatment
# [8] = optimized ASOs, 14 DIV to 20 DIV, parallel model, 3-parameter logistic, read-out: IC50 (M), UBE3A-AS
# [9] = optimized ASOs, treated 14 DIV, RNA 20 DIV, 5-point dose curve 30 nM-3 μM, full model, 3-parameter logistic, read-out: IC50 Estimate, UBE3A-AS
# [10] = treated 14 DIV, RNA 20 DIV, 10-point dose curve, 4-parameter logistic (Hill)
# [11] = treated 29 DIV, RNA 35 DIV, 10-point dose curve, full model, 4-parameter logistic (Hill), read-out: IC50 Estimate, UBE3A-AS
IC50 (UBE3A-AS; [8]),IC50 (UBE3A-AS; [9]),IC50 (UBE3A-AS; [11]),Molecule,"3 μM (Mean), Emax, normalized UBE3A-AS RNA level relative to vehicle (UBE3A-AS; treated 14 DIV, RNA 20 DIV)","30 μM (Mean), normalized UBE3A-AS RNA level relative to vehicle (UBE3A-AS; treated 14 DIV, RNA 20 DIV)","30 μM (Mean), normalized UBE3A-AS RNA level relative to vehicle (UBE3A-AS; treated 29 DIV, RNA 35 DIV)","Difference, UBE3A-AS RNA level (UBE3A-AS; [1])","Difference, UBE3A-AS RNA level (UBE3A-AS; [2])","Difference, UBE3A-AS RNA level (UBE3A-AS; [3])","Difference, UBE3A-AS RNA level (UBE3A-AS; [4])","Difference, UBE3A-AS RNA level (UBE3A-AS; [5])","Difference, UBE3A-AS RNA level (UBE3A-AS; [6])","Difference, UBE3A-AS RNA level (UBE3A-AS; [7])","UBE3A-AS RNA levels relative to the control treatment (in words) (UBE3A-AS; treated 14 DIV, RNA 20 DIV)",low concentration that significantly reduced UBE3A-AS RNA levels (UBE3A-AS),"Relative Potency (UBE3A-AS; optimized ASOs, parallel model)",Emax Estimate (normalized UBE3A-AS RNA level relative to vehicle) (UBE3A-AS; [10]),effect on IPW RNA levels (in words) (IPW),effect on SNORD115 RNA levels (in words) (SNORD115),other results
1.49e-06 M,1.06e-06 M,7.77e-07 M,U^O*A^O*G^O*A^O*A^O*t*g*g*c*a*c*a*t*c*t*C^O*U^O*U^O*G^O*G^O [ASO-4],0.29,0.09,0.11,0.36,0.85,0.21,0.87,0.08,0.16,0.04,largest effect,3 nM,highest relative potency,−0.06,"significant effect on the RNA levels of IPW, SNORD115, and SNORD109A/B but not in a dose dependent manner","significant effect on the RNA levels of IPW, SNORD115, and SNORD109A/B but not in a dose dependent manner","decrease of UBE3A-AS RNA levels (UBE3A-AS; treated 14 DIV, RNA 20 DIV): 87%; decrease of UBE3A-AS RNA levels (UBE3A-AS; treated 59 DIV, RNA 65 DIV): 81%; Relative Potency (UBE3A-AS; optimized ASOs, parallel model, listed as ASO 4.S): 1; ASO-4/Topotecan Emax ratio (equivalence test) (UBE3A-AS; treated 14 DIV, RNA 20 DIV): −4.1; ASO-4/Topotecan IC50 ratio (equivalence test) (UBE3A-AS; treated 14 DIV, RNA 20 DIV): 1.2; IC50 (UBE3A-AS; treated 14 DIV, RNA 20 DIV, 10-point dose curve 1 nM-30 μM, full model, 4-parameter logistic (Hill), read-out: IC50 Estimate (M), UBE3A-AS): 6.13e-07 M; Emax Estimate (normalized UBE3A-AS RNA level relative to vehicle) (UBE3A-AS; treated 29 DIV, RNA 35 DIV, 4-parameter logistic (Hill)): 0.08"
–,–,–,"A^L*G^L*A^L*a*t*g*g*c*a*c*a*t*c*t*5mC^L*T^L*T^L*G^L (NNNATGGCACATCTNNNN; LNA gapmer, PS, 5-methylcytosine, chemistry not fully specified) [ASO-4.4.PS.L]",–,–,–,–,–,–,–,–,–,–,–,–,–,–,–,–,"potency relative to the other ASOs of Cluster 1 (UBE3A-AS; Cluster 1 ASOs, 18 DIV to 24 DIV): at least 3 times; Cluster (hierarchical clustering of fitted dose response curves) (UBE3A-AS; candidate ASOs, Cluster 1 representing the 9 most potent ASOs): 1"
–,–,–,"CC[C@@]1(O)C(=O)OCc2c1cc1n(c2=O)Cc2cc3c(CN(C)C)c(O)ccc3nc2-1 [Topotecan, reference compound]",–,0.21,–,0.15,0.64,–,0.66,–,–,–,–,–,–,0.26,"significant effect on SNORD116, IPW, SNORD115, and SNORD109A/B RNA levels that was dose dependent","significant effect on SNORD116, IPW, SNORD115, and SNORD109A/B RNA levels that was dose dependent","IC50 (UBE3A-AS; Homo sapiens, Neuron, treated 14 DIV, RNA 20 DIV, 10-point dose curve 1 nM-30 μM, full model, 4-parameter logistic (Hill), read-out: IC50 Estimate (M), UBE3A-AS): 3.37e-08 M"
–,–,–,G^O*U^O*A^O*C^O*U^O*c*t*t*c*c*t*c*a*g*t*C^O*A^O*U^O*C^O*C^O [ASO-2],–,–,–,0.38,0.87,0.23,0.89,0.10,0.18,0.06,largest effect,–,–,–,–,–,"Difference, UBE3A-AS RNA level (UBE3A-AS; 14 DIV to 20 DIV, ASO-4 minus labelled treatment): 0.02"
7.2e-07 M,5.2e-07 M,5.17e-07 M,C^O*U^O*G^O*G^O*t*g*t*c*a*a*c*a*a*g*C^O*C^O*A^O*A^O [ASO-6.1],0.23,–,0.06,–,–,–,–,–,–,–,–,3 nM,highest relative potency,–,–,–,"Relative Potency (UBE3A-AS; optimized ASOs, parallel model, listed as ASO 6.1): 2.07; ASO-6.1/ASO-4 ratio: Emax (equivalence test) (UBE3A-AS; treated 29 DIV, RNA 35 DIV): −1.3; ASO-6.1/ASO-4 ratio: IC50 (equivalence test) (UBE3A-AS; treated 29 DIV, RNA 35 DIV): 1.03"
